# Test results reported in US4123541A, “2-Aminomethyl-5-phenyloxazoles and the pharmaceutically acceptable salts thereof” (Mitsubishi Chemical Industries Limited, priority 1976, dated 1978).
# Where two headings read alike, the source gives them in different places.
# What was measured:
# [1] = test system: carageenin-induced rat paw inflammation; assay: Anti-inflammatory activity: carrageenin-induced rat paw inflammation (edema), oral; type: in vivo, rats of Wistar-King strain; settings: 3 hours after carrageenin, read-out: Anti-inflammatory Activity (carageenin-induced rat paw inflammation) Percent Inhibition of Swelling; for inhibition in vivo at 50 mg/kg: oral dose 50 mg/kg; for inhibition in vivo at 100 mg/kg: oral dose 100 mg/kg; for inhibition in vivo at 12.5 mg/kg: oral dose 12.5 mg/kg; for inhibition in vivo at 25 mg/kg: oral dose 25 mg/kg
# Description: The anti-inflammatory activity of the 2-aminomethyl-5-phenyloxazoles was compared with that of aminopyrine.
# Eight male rats of Wistar-King strain, each weighing between 120 to 150 grams, were used for each group. The hind paw of the rats was injected subcutaneously with 0.1 ml of 1% carrageenin suspension. The volume of the paw was measured plethysmographically 3 hours after the injection, and the difference in volume between the edematous foot and the normal foot was regarded as the degree of edema. Each percent inhibition was calculated in comparison with the control. The test compounds were administered orally 30 minutes before the injection of carrageenin.
# [2] = Acute toxicity (LD50), mortality observed for 168 hours; settings: mouse, in vivo, ip
# Description: (§1) Bipolar electrode was placed on the tail root of mouse. The mouse was stimulated with a square wave (5 m sec, 1 Hz), and the minimum voltage of squeak response was measured at 5, 10, 15, 30, 45 and 60 minutes after intraperitoneal administration of the test compound. Positive analgesic response was determined in cases where increase in the minimum voltage was observed. ED50 was calculated according to Weil's method. The acute toxicity values (LD50) of the 2-aminoethyl-5-phenyloxazoles were determined in the following manner:
# LD50 was calculated according to Weil's method.
# [3] = test system: AcOH induced Writhing in Mice; assay: Analgesic activity: (A) writhing syndrome induced by acetic acid; type: in vivo, mice of ddY strain; settings: Mus musculus, sc, Litchfield-Wilcoxon's method
# Description: (A) Writhing syndrome induced by acetic acid Six male mice of ddY strain, each weighing between 25 to 30 grams were used in the present experiment. […] Thereafter, the total number of writhings of a group was recorded for 20 minutes, and percent inhibition was calculated in comparison with the control. ED50 was calculated according to Litchfield-Wilcoxon's method.
# [4] = test system: squeak response of mouse to electrical stimulation of the tail root; assay: Analgesic activity: (B) electrical stimulation method; type: in vivo, mice of ddY strain; settings: ip, mice, Weil's method
# Description: The analgesic activity of the 2-aminomethyl-5-phenyloxazoles was compared with that of aminopyrine.
# (B) Electrical stimulation method
# Five male mice of ddY strain, each weighing between 25 to 30 grams were used for each group.
# as §1, with “manner: […]” for “manner:”
# [5] = mice, mortality for 168 hours, Weil's method
compound,measurement,setting,value
OCCN1CCN(Cc2ncc(-c3ccc(F)cc3)o2)CC1,inhibition in vivo at 50 mg/kg,[1],8%
same,inhibition in vivo at 100 mg/kg,[1],54%
same,LD50 at 168 h,[2]; [5],336 mg/kg
CNCc1ncc(-c2cccc(Cl)c2)o1,inhibition in vivo at 100 mg/kg,[1],21%
same,LD50 at 168 h,[2]; [5],283 mg/kg
CCNCc1ncc(-c2ccc(Br)cc2)o1,inhibition in vivo at 100 mg/kg,[1],22%
same,LD50 at 168 h,[2]; [5],168 mg/kg
CCNCc1ncc(-c2ccc(Cl)cc2)o1,ED50,[3],1.9 mg/kg
same,inhibition in vivo at 12.5 mg/kg,[1],16%
same,inhibition in vivo at 25 mg/kg,[1],43%
same,inhibition in vivo at 50 mg/kg,[1],65%
same,inhibition in vivo at 100 mg/kg,[1],60%
same,ED50,[4],35 mg/kg
same,LD50 at 168 h,[2]; read-out: LD50 in Mice,283 mg/kg
NCc1ncc(-c2ccc(Cl)cc2)o1,ED50,[3],6 mg/kg
same,inhibition in vivo at 25 mg/kg,[1],25%
same,inhibition in vivo at 50 mg/kg,[1],29%
same,inhibition in vivo at 100 mg/kg,[1],65%
same,ED50,[4],50 mg/kg
same,LD50 at 168 h,[2]; read-out: LD50 in Mice,476 mg/kg
CCCNCc1ncc(-c2ccc(F)cc2)o1,inhibition in vivo at 50 mg/kg,[1],45%
same,inhibition in vivo at 100 mg/kg,[1],53%
same,ED50,[4],54 mg/kg
same,LD50 at 168 h,[2]; read-out: LD50 in Mice,238 mg/kg
CNCc1ncc(-c2ccccc2Cl)o1,inhibition in vivo at 100 mg/kg,[1],14%
same,LD50 at 168 h,[2]; [5],141 mg/kg
CCCNCc1ncc(-c2ccc(Cl)cc2)o1,inhibition in vivo at 50 mg/kg,[1],24%
same,inhibition in vivo at 100 mg/kg,[1],38%
same,ED50,[4],47 mg/kg
same,LD50 at 168 h,[2]; read-out: LD50 in Mice,566 mg/kg
CCNCc1ncc(-c2ccccc2Cl)o1,inhibition in vivo at 100 mg/kg,[1],14%
same,ED50,[4],54 mg/kg
same,LD50 at 168 h,[2]; read-out: LD50 in Mice,141 mg/kg
"Cc1c(N(C)C)c(=O)n(-c2ccccc2)n1C [Aminopyrine, reference compound]",ED50,[3],37 mg/kg
same,inhibition in vivo at 12.5 mg/kg,[1],9%
same,inhibition in vivo at 25 mg/kg,[1],23%
same,inhibition in vivo at 50 mg/kg,[1],47%
same,inhibition in vivo at 100 mg/kg,[1],65%
same,ED50,[4],96 mg/kg
same,LD50 at 168 h,[2]; [5],270 mg/kg
CCNCc1ncc(-c2ccccc2)o1,inhibition in vivo at 50 mg/kg,[1],23%
same,inhibition in vivo at 100 mg/kg,[1],47%
same,ED50,[4],21.4 mg/kg
same,LD50 at 168 h,[2]; read-out: LD50 in Mice,141 mg/kg
CN(C)Cc1ncc(-c2ccc(Cl)cc2)o1,ED50,[3],78 mg/kg
same,inhibition in vivo at 100 mg/kg,[1],7%
same,ED50,[4],77 mg/kg
same,LD50 at 168 h,[2]; read-out: LD50 in Mice,336 mg/kg
OCCN1CCN(Cc2ncc(-c3ccc(Cl)cc3)o2)CC1,ED50,[3],16 mg/kg
same,inhibition in vivo at 12.5 mg/kg,[1],6%
same,inhibition in vivo at 25 mg/kg,[1],27%
same,inhibition in vivo at 50 mg/kg,[1],57%
same,inhibition in vivo at 100 mg/kg,[1],50%
same,ED50,[4],30.8 mg/kg
same,LD50 at 168 h,[2]; read-out: LD50 in Mice,283 mg/kg
CNCc1ncc(-c2ccccc2)o1,ED50,[3],10.1 mg/kg
same,inhibition in vivo at 25 mg/kg,[1],5%
same,inhibition in vivo at 50 mg/kg,[1],40%
same,inhibition in vivo at 100 mg/kg,[1],48%
same,ED50,[4],32 mg/kg
same,LD50 at 168 h,[2]; read-out: LD50 in Mice,238 mg/kg
CCNCc1ncc(-c2ccc(Cl)c(Cl)c2)o1,inhibition in vivo at 25 mg/kg,[1],27%
same,inhibition in vivo at 50 mg/kg,[1],56%
same,inhibition in vivo at 100 mg/kg,[1],68%
same,LD50 at 168 h,[2]; [5],141 mg/kg
CCCNCc1ncc(-c2cccc(Cl)c2)o1,inhibition in vivo at 50 mg/kg,[1],4%
same,inhibition in vivo at 100 mg/kg,[1],32%
same,LD50 at 168 h,[2]; [5],283 mg/kg
NCc1ncc(-c2ccccc2Cl)o1,inhibition in vivo at 25 mg/kg,[1],28%
same,inhibition in vivo at 50 mg/kg,[1],58%
same,inhibition in vivo at 100 mg/kg,[1],42%
same,LD50 at 168 h,[2]; [5],283 mg/kg
OCCN1CCN(Cc2ncc(-c3ccc(Cl)c(Cl)c3)o2)CC1,inhibition in vivo at 100 mg/kg,[1],14%
same,LD50 at 168 h,[2]; [5],141 mg/kg
CNCc1ncc(-c2ccc(F)cc2)o1,inhibition in vivo at 50 mg/kg,[1],38%
same,inhibition in vivo at 100 mg/kg,[1],55%
same,LD50 at 168 h,[2]; [5],141 mg/kg
CCN(CC)Cc1ncc(-c2ccc(Cl)cc2)o1,inhibition in vivo at 50 mg/kg,[1],24%
same,inhibition in vivo at 100 mg/kg,[1],44%
same,LD50 at 168 h,[2]; [5],238 mg/kg
OCCN1CCN(Cc2ncc(-c3ccccc3)o2)CC1,inhibition in vivo at 100 mg/kg,[1],6%
same,LD50 at 168 h,[2]; [5],283 mg/kg
CNCc1ncc(-c2ccc(Cl)cc2)o1,ED50,[3],22 mg/kg
same,inhibition in vivo at 100 mg/kg,[1],17%
same,ED50,[4],46 mg/kg
same,LD50 at 168 h,[2]; read-out: LD50 in Mice,141 mg/kg
